Read-outs that look alike come from different tables or passages of the source.
Assays:
[1] = biological target: recombinant SARS-CoV-2 Main protease (Mpro) (Severe acute respiratory syndrome coronavirus 2 (2019-nCoV) (SARS-CoV-2), UniProt P0DTD1); assay: Cov Mpro Biochemical IC50 Assay; settings: read-out: MPro IC50
SARS-CoV-2-NLuc = assay: microbe, parasite or virus in culture; format: cell-based, SARS Coronavirus 2
[2] = recombinant SARS-CoV-2 Mpro 7.5 nM, fluorogenic peptide substrate 40 μM
[3] = Severe acute respiratory syndrome coronavirus, 48 h, read-out: MPro EC50
[4] = Severe acute respiratory syndrome coronavirus, 48 h; read-out: MPro EC50
[5] = recombinant SARS-CoV-2 Mpro, fluorogenic peptide substrate

Q: With `COc1cc(-c2cc3[nH]c(=O)n(-c4cncc5ccc(C(C)(C)O)cc45)c(=O)c3s2)c(Cl)cc1F` [Example 551, 6-(2-chloro-4-fluoro-5-methoxyphenyl)-3-(6-(2-hydroxypropan-2-yl)isoquinolin-4-yl)thieno[3,2-d]pyrimidine-2,4(1H,3H)-dione] as the molecule, how does the IC50 [1, 2] read?
A: 5.36 nM

Q: What about the EC50 (SARS-CoV-2-NLuc; [3]) of the same molecule?
A: 23.6 nM

Q: Which IC50 [1, 2] does the source give for `COc1cc(-c2cc3[nH]c(=O)n(-c4cncc5cccc(Cl)c45)c(=O)c3s2)c(Cl)cc1F` [Example 1078] here?
A: 8.83 nM

Q: What about the EC50 (SARS-CoV-2-NLuc; [4]) of the same molecule?
A: 9.65 nM

Q: For `COc1cc(-c2cc3c(s2)c(=O)n(-c2cncc4nc(C(F)(F)F)n(C)c24)c(=O)n3CCC#N)c(Cl)cc1F` (single isomer, unassigned) [Example 973, 3-(6-(2-chloro-4-fluoro-5-methoxyphenyl)-3-(1-methyl-2-(trifluoromethyl)-1H-imidazo[4,5-c]pyridin-7-yl)-2,4-dioxo-3,4-dihydrothieno[3,2-d]pyrimidin-1(2H)-yl)propanenitrile], which IC50 [1, 2] is on record?
A: 6.68 nM

Q: And the EC50 (SARS-CoV-2-NLuc; read-out: MPro EC50)?
A: 14.7 nM

Q: Which results are given for `COc1cc(-c2cc3c(s2)c(=O)n(-c2cncc4ccccc24)c(=O)n3CCC#N)c(C#N)cc1F` (single isomer, unassigned) [Example 967, 2-(1-(2-cyanoethyl)-3-(isoquinolin-4-yl)-2,4-dioxo-1,2,3,4-tetrahydrothieno[3,2-d]pyrimidin-6-yl)-5-fluoro-4-methoxybenzonitrile]?
A: IC50 [1, 2]: 1.82 nM; EC50 (SARS-CoV-2-NLuc; read-out: MPro EC50): 1.83 nM

Q: `COc1cnc(Cl)c(-c2cc3[nH]c(=O)n(-c4cncc5cccc(F)c45)c(=O)c3s2)c1` [Example 760] was tested. Which IC50 [1, 2] did it give?
A: 15.6 nM

Q: And the EC50 (SARS-CoV-2-NLuc; [3])?
A: 93.7 nM

Q: For `COc1ccc(Cl)c(-c2ccc3c(=O)n(-c4cncc5ccc(N6CC[C@H](OC)C6)cc45)c(=O)[nH]c3c2)c1` [Example 409], which IC50 [1, 2] is on record?
A: 15.7 nM

Q: What about the EC50 (SARS-CoV-2-NLuc; [3]) of the same molecule?
A: 77.4 nM

Q: With `COc1cc(Cl)c(-c2cc3[nH]c(=O)n(-c4cncc5ccccc45)c(=O)c3s2)cc1C` [Example 723] as the molecule, how does the IC50 [1, 2] read?
A: 21.1 nM

Q: What about the EC50 (SARS-CoV-2-NLuc; [3]) of the same molecule?
A: 17.2 nM

Q: For `O=c1[nH]c2cc(-c3c(Cl)cccc3Cl)sc2c(=O)n1-c1cncc(C2CC2)c1` [Example 370, 3-(5-cyclopropylpyridin-3-yl)-6-(2,6-dichlorophenyl)thieno[3,2-d]pyrimidine-2,4(1H,3H)-dione], which IC50 [1, 5] is on record?
A: 273 nM

Q: And the EC50 (SARS-CoV-2-NLuc; [4])?
A: 388 nM

Q: Which IC50 [1, 5] does the source give for `O=c1[nH]c2cc(-c3c(Cl)cccc3-c3ccc4c(c3)CCO4)ccc2c(=O)n1-c1cncc2ccccc12` [Example 179] here?
A: 195 nM

Q: And the EC50 (SARS-CoV-2-NLuc; [3])?
A: 84.8 nM

Q: What does the source list for `COc1ccc(Cl)c(-c2cc3[nH]c(=O)n(-c4cncc5scc(C)c45)c(=O)c3s2)c1` (single isomer, unassigned) [Example 1052, 6-(2-chloro-5-methoxyphenyl)-3-(3-methylthieno[2,3-c]pyridin-4-yl)thieno[3,2-d]pyrimidine-2,4(1H,3H)-dione]?
A: IC50 [1, 2]: 3.67 nM; EC50 (SARS-CoV-2-NLuc; read-out: MPro EC50): 2.66 nM

Q: Which results are given for `Cc1c2c(-n3c(=O)c4sc(-c5ccc(F)cc5Cl)cc4n(CCC#N)c3=O)cncc2nn1C` [Example 797, 3-(6-(2-chloro-4-fluorophenyl)-3-(2,3-dimethyl-2H-pyrazolo[3,4-c]pyridin-4-yl)-2,4-dioxo-3,4-dihydrothieno[3,2-d]pyrimidin-1(2H)-yl)propanenitrile]?
A: IC50 [1, 2]: 34.6 nM; EC50 (SARS-CoV-2-NLuc; [3]): 108 nM

Q: Which IC50 [1, 5] does the source give for `O=c1[nH]c2cc(-c3ccc4ccccc4c3)ccc2c(=O)n1-c1cncc2ccccc12` [Example 51] here?
A: > 100000 nM

Q: And the EC50 (SARS-CoV-2-NLuc; [3])?
A: 6800 nM

Q: `N#CCCn1c(=O)n(-c2cncc(OC(F)F)c2)c(=O)c2sc(-c3ccccc3C#N)cc21` [Example 816] was tested. Which IC50 [1, 2] did it give?
A: 58.1 nM

Q: What about the EC50 (SARS-CoV-2-NLuc; [4]) of the same molecule?
A: 342 nM

Q: What does the source list for `COc1cc(-c2cc3[nH]c(=O)n(-c4cncc5cccc(C)c45)c(=O)c3s2)c(Cl)cc1F` (single isomer, unassigned) [Example 995, 6-(2-chloro-4-fluoro-5-methoxyphenyl)-3-(5-methylisoquinolin-4-yl)thieno[3,2-d]pyrimidine-2,4(1H,3H)-dione]?
A: IC50 [1, 2]: 3.27 nM; EC50 (SARS-CoV-2-NLuc; read-out: MPro EC50): 1.26 nM

Q: `Cn1cnc(COc2cccc(Cl)c2-c2ccc3c(=O)n(-c4cncc5ccccc45)c(=O)[nH]c3c2)n1` [Example 88] was tested. Which IC50 [1, 5] did it give?
A: 233 nM

Q: What about the EC50 (SARS-CoV-2-NLuc; [3]) of the same molecule?
A: 630 nM

Q: `COc1ccc(C#N)c(-c2ccc3c(=O)n(-c4cncc5ccccc45)c(=O)[nH]c3c2)c1` (single isomer, unassigned) [Example 569, 2-[3-(4-isoquinolyl)-2,4-dioxo-1H-quinazolin-7-yl]-4-methoxy-benzonitrile] was tested. Which IC50 [1, 2] did it give?
A: 8.41 nM

Q: What about the EC50 (SARS-CoV-2-NLuc; read-out: MPro EC50) of the same molecule?
A: 20.5 nM

Q: Which IC50 [1, 5] does the source give for `COc1cncc(-n2c(=O)[nH]c3cc(-c4ccccc4Cl)ccc3c2=O)c1C` [Example 141] here?
A: 6650 nM

Q: What about the EC50 (SARS-CoV-2-NLuc; [3]) of the same molecule?
A: 32200 nM

Q: What does the source list for `CC1(O)CN(c2ccc3cncc(-n4c(=O)[nH]c5cc(-c6ccccc6Cl)sc5c4=O)c3c2)C1` [Example 390]?
A: IC50 [1, 5]: 11.6 nM; EC50 (SARS-CoV-2-NLuc; [3]): 19.1 nM

Q: With `O=c1[nH]c2cc(-c3ccccc3Cl)sc2c(=O)n1-c1cncc2c1CCCC2` [Example 108] as the molecule, how does the IC50 [1, 5] read?
A: 9.23 nM

Q: And the EC50 (SARS-CoV-2-NLuc; [3])?
A: 71.4 nM

Q: `Cc1ncccc1-c1cccc(Cl)c1-c1ccc2c(=O)n(-c3cncc4ccccc34)c(=O)[nH]c2c1` [Example 320] was tested. Which IC50 [1, 5] did it give?
A: 16 nM

Q: And the EC50 (SARS-CoV-2-NLuc; [3])?
A: 14.1 nM

Q: Which results are given for `Cc1ccccc1-c1cc2[nH]c(=O)n(-c3cncc4ccccc34)c(=O)c2s1` [Example 7]?
A: IC50 [1, 5]: 24.7 nM; EC50 (SARS-CoV-2-NLuc; [3]): 109 nM

Q: What does the source list for `COc1cc(-c2cc3c(s2)c(=O)n(-c2cncc4nnn(C)c24)c(=O)n3CCC#N)c(Cl)cc1F` (single isomer, unassigned) [Example 1058, 3-(6-(2-chloro-4-fluoro-5-methoxyphenyl)-3-(1-methyl-1H-[1,2,3]triazolo[4,5-c]pyridin-7-yl)-2,4-dioxo-3,4-dihydrothieno[3,2-d]pyrimidin-1(2H)-yl)propanenitrile]?
A: IC50 [1, 2]: 2.86 nM; EC50 (SARS-CoV-2-NLuc; read-out: MPro EC50): 5.15 nM

Q: `COc1cc(-c2ccc3c(=O)n(-c4cncc5ccccc45)c(=O)[nH]c3c2)c(Cl)cc1Cl` [Example 316] was tested. Which IC50 [1, 5] did it give?
A: 1070 nM

Q: And the EC50 (SARS-CoV-2-NLuc; [3])?
A: 322 nM

Q: `COc1cc(-c2cc3c(s2)c(=O)n(-c2cncc4cnn(C)c24)c(=O)n3CC(F)(F)F)c(Cl)cc1F` [Example 1066] was tested. Which IC50 [1, 2] did it give?
A: 15.3 nM

Q: And the EC50 (SARS-CoV-2-NLuc; [3])?
A: 19.9 nM

Q: For `N#Cc1cnccc1-c1cc2[nH]c(=O)n(-c3cncc4ccccc34)c(=O)c2s1` [Example 531], which IC50 [1, 2] is on record?
A: 50 nM

Q: And the EC50 (SARS-CoV-2-NLuc; [3])?
A: 518 nM

Q: With `O=c1[nH]c2cc(-c3c(Cl)cccc3-c3cc4n(n3)CCC4)ccc2c(=O)n1-c1cncc2ccccc12` [Example 246] as the molecule, how does the IC50 [1, 5] read?
A: 21 nM

Q: And the EC50 (SARS-CoV-2-NLuc; [3])?
A: 18.4 nM

Q: `O=c1[nH]c2cc(-c3ccccc3Cl)sc2c(=O)n1-c1cncc2ccsc12` [Example 479, 6-(2-chlorophenyl)-3-thieno[3,2-c]pyridin-7-yl-1H-thieno[3,2-d]pyrimidine-2,4-dione] was tested. Which IC50 [1, 2] did it give?
A: 16.7 nM

Q: And the EC50 (SARS-CoV-2-NLuc; [3])?
A: 20.9 nM

Q: What does the source list for `COc1cc(-c2cc3[nH]c(=O)n(-c4cncc5ccccc45)c(=O)c3cc2F)c(C#N)cc1F` [Example 202, 5-fluoro-2-[6-fluoro-3-(4-isoquinolyl)-2,4-dioxo-1H-quinazolin-7-yl]-4-methoxy-benzonitrile]?
A: IC50 [1, 5]: 13.6 nM; EC50 (SARS-CoV-2-NLuc; [3]): 18.4 nM

Q: With `N#CCCn1c(=O)n(-c2cncc(C(F)F)c2)c(=O)c2sc(-c3ccccc3C#N)cc21` [Example 888] as the molecule, how does the IC50 [1, 2] read?
A: 25.8 nM

Q: What about the EC50 (SARS-CoV-2-NLuc; [4]) of the same molecule?
A: 91.5 nM

Q: With `CCOc1ccc(Cl)c(-c2cc3[nH]c(=O)n(-c4cncc5ccccc45)c(=O)c3s2)c1` [Example 345] as the molecule, how does the IC50 [1, 5] read?
A: 14.7 nM

Q: And the EC50 (SARS-CoV-2-NLuc; [3])?
A: 61.8 nM
